Source: US11203576B2, “Aurora kinase and Janus kinase inhibitors for prevention of graft versus host disease” (H. LEE MOFFITT CANCER CENTER AND RESEARCH INSTITUTE, INC., priority 2016, dated 2021)

What was measured:
JAK2 = JAK2 (Homo sapiens, UniProt O60674); test: Kinase target screen, panel of 140 kinases; type: biochemical
Method: (§1) Allogeneic mixed leukocyte reactions (alloMLRs) are standard assays used to assess human T cell proliferation against polyclonal or antigen-specific stimuli. In alloMLRs consisting of human T cells and allogeneicmonocyte-derived dendritic cells (DCs), the JAK2 inhibitor TG101348 reduced alloreactive T cell proliferation at concentrations of 350 nM and greater as previously reported (FIG. 9A). […] Synergistic suppression of T cells allostimulated by DCs was achieved when TG101348 and alisertib were added together at a ratio of 1:5, respectively, with a calculated combination index (CI) of <1 using the Chou-Talalay method (FIG. 9A). […] The chemical analogs AJI-214 and AJI-100 were designed and synthesized at the Moffitt Cancer Center and shown to inhibit Aurora kinase A and JAK2 with similar potency. […] Because AJI-100 is tolerated in mouse models, a kinase target screen was performed on AJI-100 to verify its activity against Aurora kinase A and JAK2 among a panel of 140 kinases.

[1] = system: 5′ AMP activated protein kinase (AMPK); test: Kinase target screen, panel of 140 kinases; type: biochemical
Method: as §1

Aurora kinase B = Aurora kinase B (Homo sapiens, UniProt Q96GD4); test: Kinase target screen, panel of 140 kinases; type: biochemical; settings: compared with alisertib
Method: as §1

STAT3 (target of JAK2) = test: STAT3 phosphorylation in T-cells (flow cytometry); type: cell-based, human; settings: in vitro, DC- or IL-6-stimulated, vs DMSO
Method: IL-6-induced pSTAT3 or IL-2-induced pSTAT5 (Y694) was measured by flow cytometry.

[2] = system: human skin graft rejection by allogeneic PBMC; test: Human skin xenograft rejection in NSG mice; type: in vivo; settings: 50 mg/kg daily i.p., + PBMCs, day +21
Method: Using the nondiagnostic mastectomy skin from consenting donors, a 1×1 cm skin graft was transplanted onto immunodeficient NSG mice dorsally. After 30 days of healing, 5×10^6 peripheral blood mononuclear cells (PBMC) from an HLA-disparate random donor was given by i.p. injection. A cohort of mice only received a skin graft without PBMCs, as negative rejection controls. The transplanted mice were treated with AJI-100 (50 mg/kg), a dual JAK2/Aurora A kinase inhibitor, or vehicle daily by i.p. injection. Mice were humanely euthanized on day +21 to assess human anti-human skin rejection pathology. […] Conversely, skin grafts from the mice who received Vehicle+PBMCs show diffuse lymphocytic infiltration of the dermis with exocytosis, a disrupted dermal-epidermal junction, and hyperkeratosis (grade III, FIG. 15B).

[3] = system: xenogeneic GVHD (NSG mice transplanted with human PBMCs); test: Xenogeneic GVHD model; type: in vivo
From the text: After transplantation and treatment with either AJI-100 or vehicle control, human T cells were isolated from recipient mouse spleens at day +14, stained for pH3Ser^10 or pSTAT3 (+IL-6 stimulation), and analyzed as described.
NOD scid gamma (NSG) mice (male or female, 6-24 weeks old) were purchased from Jackson Laboratory (Bar Harbor, Me., USA) and raised per an IACUC-approved protocol in adherence to the NIH Guide for the Care and Use of Laboratory Animals. Mice received either (i) alisertib (30 mg/kg daily), TG101348 (45 mg/kg twice a day), a combination of alisertib and TG101348, or vehicle (methylcellulose) by oral gavage or (ii) AJI-100 (50 mg/kg daily) or vehicle (50% polyethylene glycol, 15% 2-hydroxypropyl-b-cyclodextrin, and 10% DMSO in sterile saline) ip from day 0 to day +14.
Mice were monitored for GVHD clinical scores (K. R. Cooke et al., An experimental model of idiopathic pneumonia syndrome after bone marrow transplantation: I. The roles of minor H antigens and endotoxin. Blood 88, 3230 (1996)), weight, and premoribund status. As indicated, mice were euthanized on day +14 to study recipient spleen Tconv, Tregs, TH1, TH17, B cells, and T-cell signal transduction. Human CD4^+ Treg (CD25+, CD127^−, Foxp3^+), Tconv(CD25^+, CD127^+), TH1, TH17, and CD19^+ B cells residing in recipient spleens were quantified by flow cytometry. T-cell pH3 ser10 and PSTAT3 were evaluated by flow cytometry. IL-17 ELISPOTs were performed using isolated human T cells from recipient mouse spleen as described above. Tissue samples were prepared, stained (Ventana Medical Systems, Tucson, Ariz.), and imaged (Vista, Calif., USA) to identify human T-cells as previously described. All vertebrate animal work was IACUC-approved.

Solubility = type: physicochemical; settings: relative to the ortho-chloro analogue
[4] = system: T-cells allostimulated by dendritic cells (DC); test: Allogeneic mixed leukocyte reaction (alloMLR), T-cell proliferation; type: cell-based, human
Method: Bulk donor T-cells were allostimulated with allogeneic DCs (DC:T-cell ratio of 1:30) as previously described (OneBlood, Tampa, Fla.)(15, 16, 20). […] As indicated, alloMLRs consisting of Treg depleted, naïve CD4^+ T-cells (Miltenyi Biotec Inc, San Diego, Calif.) were treated with a combination of ARL67156 (CD39 inhibitor, 125 μM, Sigma), AJI, or DMSO on day 0 to study the role of CD39 and ATP in this system. T-cell proliferation was measured on day 5 by a colorimetric assay (CellTiter 96 Aqueous One Solution Cell Proliferation Assay [MTS]; or CellTiter Blue, Promega, Madison, Wis.). Absorbance/optical density (OD) was analyzed at 490 nm or 590 nm, respectively. Proliferation (%)=(OD treated alloMLR−OD T-cells alone)/(OD DMSO alloMLR−OD T-cells alone)×100.

Bioavailability = settings: in vivo
[5] = day +14, 50 mg/kg daily, vs vehicle

Sequence of Aurora kinase B (Q96GD4 whole entry): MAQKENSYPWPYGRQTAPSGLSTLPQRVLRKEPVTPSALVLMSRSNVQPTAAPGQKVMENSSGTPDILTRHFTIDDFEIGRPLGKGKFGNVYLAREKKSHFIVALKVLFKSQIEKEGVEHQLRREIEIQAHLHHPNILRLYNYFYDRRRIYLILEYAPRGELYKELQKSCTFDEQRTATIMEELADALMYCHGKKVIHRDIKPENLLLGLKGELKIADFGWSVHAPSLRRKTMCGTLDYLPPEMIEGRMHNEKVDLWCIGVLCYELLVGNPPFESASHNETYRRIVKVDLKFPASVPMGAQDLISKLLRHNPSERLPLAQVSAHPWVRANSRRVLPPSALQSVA
Sequence of JAK2 (O60674 whole entry): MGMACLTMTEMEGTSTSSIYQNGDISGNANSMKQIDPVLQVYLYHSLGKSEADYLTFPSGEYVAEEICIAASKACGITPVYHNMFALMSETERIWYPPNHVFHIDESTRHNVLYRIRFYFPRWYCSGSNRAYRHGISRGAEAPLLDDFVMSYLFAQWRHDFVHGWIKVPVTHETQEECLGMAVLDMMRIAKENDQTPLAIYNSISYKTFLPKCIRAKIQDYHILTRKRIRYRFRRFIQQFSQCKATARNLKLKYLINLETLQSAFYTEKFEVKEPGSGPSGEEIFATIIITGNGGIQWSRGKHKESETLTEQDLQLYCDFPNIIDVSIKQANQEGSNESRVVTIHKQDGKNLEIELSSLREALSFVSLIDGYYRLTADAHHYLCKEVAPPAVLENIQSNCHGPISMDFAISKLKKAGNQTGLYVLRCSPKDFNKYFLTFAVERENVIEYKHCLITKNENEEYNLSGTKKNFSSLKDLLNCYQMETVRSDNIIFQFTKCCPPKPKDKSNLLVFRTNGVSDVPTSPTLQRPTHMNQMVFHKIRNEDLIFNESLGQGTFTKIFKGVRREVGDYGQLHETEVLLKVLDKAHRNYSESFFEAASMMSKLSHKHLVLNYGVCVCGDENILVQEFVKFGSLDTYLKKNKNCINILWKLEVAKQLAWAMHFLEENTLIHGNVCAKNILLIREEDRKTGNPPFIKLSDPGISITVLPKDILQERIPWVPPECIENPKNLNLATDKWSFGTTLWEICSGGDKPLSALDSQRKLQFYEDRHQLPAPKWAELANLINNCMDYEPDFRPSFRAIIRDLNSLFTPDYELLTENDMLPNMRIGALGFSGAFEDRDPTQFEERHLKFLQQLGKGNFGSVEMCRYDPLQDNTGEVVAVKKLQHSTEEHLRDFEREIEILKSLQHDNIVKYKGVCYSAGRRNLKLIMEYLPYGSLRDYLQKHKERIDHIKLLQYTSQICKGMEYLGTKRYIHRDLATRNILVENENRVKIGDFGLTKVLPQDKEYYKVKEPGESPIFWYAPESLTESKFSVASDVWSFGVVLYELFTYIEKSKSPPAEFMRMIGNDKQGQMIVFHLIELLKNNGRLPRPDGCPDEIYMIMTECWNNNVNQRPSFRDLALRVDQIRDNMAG

**Q.** With NC(=O)c1ccc(Nc2ncc(F)c(Nc3ccccc3)n2)cc1 [bisanilinopyrimidine (II), 5-Fluoro-N4-phenyl-N2-[4-(4-carboxamide)phenyl]pyrimidine-2,4-diamine] as the molecule, how does the “inhibition of JAK2 in kinase panel” value (JAK2) read?
**A.** among the top three kinases inhibited

**Q.** What about the “inhibition of AMPK” value [1] of the same molecule?
**A.** inhibits

**Q.** And the “ratio of Aurora kinase A to kinase B inhibition” value (Aurora kinase B)?
**A.** greater than alisertib

**Q.** What about the “suppression of Aurora kinase B” value (Aurora kinase B) of the same molecule?
**A.** slightly more potent suppression of Aurora kinase B than alisertib

**Q.** What about the “STAT3 (pSTAT3 Y705) phosphorylation in T-cells” value (STAT3 (target of JAK2)) of the same molecule?
**A.** less STAT3 phosphorylation

**Q.** What about the “STAT3 (pSTAT3 Y705) phosphorylation in T-cells” value (STAT3 (target of JAK2); listed as AJI-100) of the same molecule?
**A.** reducing the phosphorylation

**Q.** What about the “skin graft rejection grade (Bejarano scoring system)” value [2] of the same molecule?
**A.** grade I

**Q.** What about the overall survival ([3]; 50 mg/kg daily i.p. day 0 to +14, 56 days of observation) of the same molecule?
**A.** 71.4%

**Q.** And the “overall survival of the mice” value ([3]; AJI-100 50 mg/kg daily ip day 0 to +14, vs vehicle)?
**A.** significantly improved

**Q.** What about the “H3 ser10 phosphorylation in human T-cells harvested from mice” value [3, 5] of the same molecule?
**A.** less H3 ser10 phosphorylation

**Q.** What about the “pSTAT3+ human T cells harvested from recipient spleens” value [3, 5] of the same molecule?
**A.** significantly reduced

**Q.** What about the “H3 ser10 phosphorylation in human T-cells harvested from mice” value ([3]; day +14, 50 mg/kg daily, vs vehicle, listed as AJI-100) of the same molecule?
**A.** significantly reduced

**Q.** And the “GVHD severity (pathology) in liver and lung” value ([3]; day +14, vs vehicle)?
**A.** significantly reduced

**Q.** What about the “Treg frequency in the liver” value ([3]; day +14, vs vehicle) of the same molecule?
**A.** similar

**Q.** What about the “absolute number of Tregs in recipient spleens” value ([3]; day +14, vs vehicle) of the same molecule?
**A.** significantly reduced

**Q.** And the “absolute number of activated CD4+ Tconv in recipient spleens” value ([3]; day +14, vs vehicle)?
**A.** significantly reduced

**Q.** And the “absolute number of total CD4+ T cells in recipient spleens” value ([3]; day +14, vs vehicle)?
**A.** significantly reduced

**Q.** What about the “absolute number of total spleen cells and human CD3+ T-cells in spleens” value ([3]; day +14, vs vehicle) of the same molecule?
**A.** similar

**Q.** And the “percentage of CD4+ alloreactive Tconv in the spleen” value ([3]; day +14, vs vehicle)?
**A.** similar

**Q.** And the “ratio of human Treg to CD4+ alloreactive/activated Tconv in recipient spleens” value ([3]; day +14, vs vehicle)?
**A.** significantly increased

**Q.** And the “relative amount of human Tregs in the spleen” value ([3]; day +14, vs vehicle)?
**A.** significantly increased

**Q.** What about the “spleen-resident human TH1 T cells” value ([3]; day +14, vs vehicle) of the same molecule?
**A.** significantly reduced

**Q.** And the “spleen-resident human TH17 T cells” value ([3]; day +14, vs vehicle)?
**A.** significantly reduced

**Q.** What about the “tissue-infiltrating human T cells in recipient liver (and lung)” value ([3]; day +14, vs vehicle) of the same molecule?
**A.** dramatically reduced

**Q.** And the “tissue-infiltrating human T cells in recipient liver (and lung)” value ([3]; day +14, vs vehicle, listed as AJI-100)?
**A.** significantly decreased

**Q.** What about the “surviving mice with limited fur/skin changes without significant weight loss” value ([3]; day +56) of the same molecule?
**A.** 60%

**Q.** What about the “onset and severity of GVHD” value ([3]; dosing day 0 to +14, vs vehicle) of the same molecule?
**A.** reduced the severity of GVHD

**Q.** And the “tolerability in mouse models” value ([3]; mouse, in vivo)?
**A.** tolerated

**Q.** What about the “average GVHD clinical scores” value ([3]; surviving treated mice at day +56) of the same molecule?
**A.** < 2

**Q.** What about the “CD8+ T cell and CD19+ B cell reconstitution (absolute numbers)” value ([3]; vs vehicle) of the same molecule?
**A.** suppressive effect

**Q.** And the “frequencies of CD4+ and CD8+ T cells and CD19+ B cells” value ([3]; vs vehicle)?
**A.** similar

**Q.** What about the solubility (Solubility) of the same molecule?
**A.** enhancing its solubility

**Q.** What about the IC50 ([4]; Homo sapiens, single agent added once on day 0, proliferation on day 5, DC:T-cell ratio 1:30, read-out: IC50, T-cell proliferation in alloMLR) of the same molecule?
**A.** 200 nM

**Q.** And the “suppression of T cells in alloMLRs” value ([4]; single agent, nanomolar concentrations, vs DMSO)?
**A.** significant suppression

**Q.** And the bioavailability (Bioavailability)?
**A.** superior bioavailability
